This is an account of results in patent US6573274B1, “Sulfonamide compounds and uses thereof as medicines” (Fujisawa Pharmaceutical Co. Ltd., priority 1998, dated 2003).

Counter-ions that a name gives are not always drawn.

A word on the melting point: it is the temperature, or range, at which the solid turns liquid. With `CCCCS(=O)(=O)NC(=O)c1ccc2nc(C)n(Cc3ccc(OC)cc3Cl)c2n1` [Example 6, 5-(1-butanesulfonylcarbamoyl)-3-(2-chloro-4-methoxybenzyl)-2-methyl-3H-imidazo[4,5-b]pyridine], the melting point was 175 to 177 °C. For `CCCCS(=O)(=O)NC(=O)c1ccc2nc(C)n(Cc3ccc(OCCC)cc3Cl)c2n1` [Example 13, 5-(1-butanesulfonylcarbamoyl)-3-(2-chloro-4-(1-propoxy)benzyl)-2-methyl-3H-imidazo[4,5-b]pyridine] the value was 153 to 154 °C; for `CCCCCS(=O)(=O)NC(=O)c1ccc2nc(C)n(Cc3ccc(N(C)C(=O)OCCC)cc3Cl)c2n1` [Example 95, 3-(2-chloro-4-(N-methyl-N-(1-propoxycarbonyl)amino)benzyl)-2-methyl-5-(1-pentanesulfonylcarbamoyl)-3H-imidazo[4,5-b]pyridine], 169 to 170 °C.

In the case of `CCCCS(=O)(=O)NC(=O)c1cc(C)c2nc(C)n(Cc3ccc(OCCC)cc3Cl)c2n1` [Example 36, 5-(1-butanesulfonylcarbamoyl)-3-[2-chloro-4-(1-propoxy)benzyl]-2,7-dimethyl-3H-imidazo[4,5-b]pyridine], the melting point is 164 to 166 °C. Turning to `CCCCCS(=O)(=O)NC(=O)c1ccc2nc(C)n(Cc3ncc(C(F)(F)F)cc3Cl)c2n1` [Example 57, 3-[(3-chloro-5-(trifluoromethyl)-2-pyridyl)methyl]-2-methyl-5-(1-pentanesulfonylcarbamoyl)-3H-imidazo[4,5-b]pyridine], the melting point was 169 to 170 °C. In the case of `CCC/C=C/S(=O)(=O)NC(=O)c1ccc2nc(C)n(Cc3ncc(NC(=O)OC(C)C)cc3Cl)c2n1` [Example 136, 3-[(5-(N-(isopropoxycarbonyl)amino)-3-chloropyridin-2-yl)methyl]-2-methyl-5-((E)-1-penten-1-ylsulfonylcarbamoyl)-3H-imidazo[4,5-b]pyridine], the melting point lay in the range of 242 to 244 °C. For `CCCCCS(=O)(=O)NC(=O)c1ccc2nc(C)n(Cc3ccc4c(nc(C)n4C)c3Cl)c2n1` [Example 120, 3-[(4-chloro-1,2-dimethyl-1H-benzimidazol-5-yl)methyl]-2-methyl-5-(1-pentanesulfonylcarbamoyl)-3H-imidazo[4,5-b]pyridine] the value was 229 to 231 °C. On to `CCCCCS(=O)(=O)NC(=O)c1ccc2nc(C)n(Cc3ncc(Cl)cc3Cl)c2n1` [Example 123, 3-[(3,5-dichloropyridin-2-yl)methyl]-2-methyl-5-(1-pentanesulfonylcarbamoyl)-3H-imidazo[4,5-b]pyridine], for which the melting point fell in the range of 155 to 156 °C.

For the compound `CCCCCOc1ccc(Cn2c(CC)nc3ccc(C(=O)NS(=O)(=O)CCCC)nc32)c(Cl)c1` [Example 66, 5-(1-butanesulfonylcarbamoyl)-3-(2-chloro-4-(1-pentyloxy)benzyl)-2-ethyl-3H-imidazo[4,5-b]pyridine], the melting point was 140 to 142 °C.

Take `CCCCCS(=O)(=O)NC(=O)c1cc(C)c2nc(C)n(Cc3ccc(-c4ccco4)cc3Cl)c2n1` [Example 86, 3-[2-chloro-4-(2-furyl)benzyl]-2,7-dimethyl-5-(1-pentanesulfonylcarbamoyl)-3H-imidazo[4,5-b]pyridine]: the melting point is 177 to 178 °C. Next, `CCCNS(=O)(=O)NC(=O)c1ccc2nc(C)n(Cc3ccc(OCC)cc3Cl)c2n1` [Example 10, 3-(2-chloro-4-ethoxybenzyl)-2-methyl-5-((1-propylaminosulfonyl)carbamoyl)-3H-imidazo[4,5-b]pyridine]: 152 to 155 °C; `CCCCCS(=O)(=O)NC(=O)c1ccc2nc(C)n(Cc3ccc(N(C)CC4CCCCC4)cc3Cl)c2n1` [Example 53, 3-(2-chloro-4-(N-(cyclohexylmethyl)methylamino)benzyl)-2-methyl-5-(1-pentanesulfonylcarbamoyl)-3H-imidazo[4,5-b]pyridine]: 169 to 170 °C; `CCCCCOc1ccc(Cn2c(C)nc3ccc(C(=O)NS(=O)(=O)NCCC)nc32)c(Cl)c1` [Example 25, 5-((1-propylaminosulfonyl)carbamoyl)-3-(2-chloro-4-(1-pentyloxy)benzyl)-2-methyl-3H-imidazo[4,5-b]pyridine]: 155 to 158 °C.

`CCCCCS(=O)(=O)NC(=O)c1ccc2nc(C)n(Cc3cnc(Cl)cc3Cl)c2n1` gave a melting point of 161 to 163 °C. For `CCCCS(=O)(=O)NC(=O)c1ccc2nc(CC)n(Cc3ccc(OCC4CCCCC4)cc3Cl)c2n1` [Example 67, 5-(1-butanesulfonylcarbamoyl)-3-(2-chloro-4-(cyclohexylmethyloxy)benzyl)-2-ethyl-3H-imidazo[4,5-b]pyridine] the value was 145 to 146 °C; for `CCCCCS(=O)(=O)NC(=O)c1ccc2nc(C)n(Cc3ccc(-c4ccc(Cl)s4)cc3Cl)c2n1.[Na]`, greater than 250 °C. For `CCC/C=C/S(=O)(=O)NC(=O)c1ccc2nc(C)n(Cc3ccc(NC(=O)OC(C)(C)C)cc3Cl)c2n1` [Example 112, 3-(4-(N-t-butoxycarbonylamino)-2-chlorobenzyl)-2-methyl-5-((E)-1-penten-1-ylsulfonylcarbamoyl)-3H-imidazo[4,5-b]pyridine] the value was 215 to 216 °C; for `CCCCCS(=O)(=O)NC(=O)c1ccc2nc(C)n(Cc3ccc(N(CC)C(=O)OC(C)(C)C)cc3Cl)c2n1` [Example 72, 3-[4-(N-(tert-butoxycarbonyl)-N-ethylamino)-2-chlorobenzyl]-2-methyl-5-(1-pentanesulfonylcarbamoyl)-3H-imidazo[4,5-b]pyridine], 131 to 132 °C; for `CCCCS(=O)(=O)NC(=O)c1ccc2nc(C)n(Cc3ccc(NC(=O)OC(C)C)cc3Cl)c2n1` [Example 103, 5-(1-butanesulfonylcarbamoyl)-3-(2-chloro-4-(N-(isopropoxycarbonyl)amino)benzyl)-2-methyl-3H-imidazo[4,5-b]pyridine], 181 to 182 °C. `CCC/C=C/S(=O)(=O)NC(=O)c1ccc2nc(C)n(Cc3ncc(NC(=O)OCC)cc3Cl)c2n1` (as salt: sodium) [Example 133, 3-[(3-chloro-5-(N-(ethoxycarbonyl)amino)pyridin-2-yl)methyl]-2-methyl-5-((E)-1-penten-1-ylsulfonylcarbamoyl)-3H-imidazo[4,5-b]pyridine] returned a melting point of 236 to 239 °C. As to `CCCCCS(=O)(=O)NC(=O)c1ccc2nc(C)n(Cc3ccc(OC(C)C)cc3Cl)c2n1` [Example 14, 3-(2-chloro-4-isopropoxybenzyl)-2-methyl-5-(1-pentanesulfonylcarbamoyl)-3H-imidazo[4,5-b]pyridine], the melting point is 130 to 133 °C. Consider `CCCCCS(=O)(=O)NC(=O)c1ccc2nc(CC)n(Cc3ccc(OCC4CCCCC4)cc3Cl)c2n1` [Example 68, 3-(2-chloro-4-(cyclohexylmethyloxy)benzyl)-2-ethyl-5-(1-pentanesulfonylcarbamoyl)-3H-imidazo[4,5-b]pyridine], for which the melting point lay in the range of 137 to 139 °C. As for `CCCCCS(=O)(=O)NC(=O)c1ccc2nc(C)n(Cc3ccc(N(C)C(=O)OCC)cc3Cl)c2n1` [Example 145, 3-(4-(N-(ethoxycarbonyl)-N-methylamino)-2-chlorobenzyl)-2-methyl-5-(1-pentanesulfonylcarbamoyl)-3H-imidazo[4,5-b]pyridine], the melting point was 149 to 150 °C. `Cc1cc(C(=O)NS(=O)(=O)c2ccc(Br)s2)nc2c1nc(C)n2Cc1ccc(-c2ccccc2)cc1Cl.[Na]` showed a melting point greater than 250 °C. `CCCCCS(=O)(=O)NC(=O)c1ccc2nc(C)n(Cc3ccc(-n4cccc4)cc3Cl)c2n1` [Example 83, 3-(2-chloro-4-(1-pyrrolyl)benzyl)-2-methyl-5-(1-pentanesulfonylcarbamoyl)-3H-imidazo[4,5-b]pyridine] gave a melting point of 171 to 172 °C.

`CCCCCS(=O)(=O)NC(=O)c1cc(C)c2nc(C)n(Cc3ccc(OCCC)cc3Cl)c2n1` [Example 35, 3-(2-chloro-4-(1-propoxy)benzyl)-2,7-dimethyl-5-(1-pentanesulfonylcarbamoyl)-3H-imidazo[4,5-b]pyridine] gave a melting point of 161 to 162 °C. For `CCCCCS(=O)(=O)NC(=O)c1ccc2nc(C)n(Cc3ncc(NC(=O)OCC)cc3Cl)c2n1` [Example 132, 3-[(3-chloro-5-(N-(ethoxycarbonyl)amino)pyridin-2-yl)methyl]-2-methyl-5-(1-pentanesulfonylcarbamoyl)-3H-imidazo[4,5-b]pyridine] the value was 232 to 233 °C; for `CCCCCS(=O)(=O)NC(=O)c1ccc2nc(C)n(Cc3ncc(NC(=O)OC(C)C)cc3Cl)c2n1` [Example 135, 3-[(5-(N-(isopropoxycarbonyl)amino)-3-chloropyridin-2-yl)methyl]-2-methyl-5-(1-pentanesulfonylcarbamoyl)-3H-imidazo[4,5-b]pyridine], 228 to 230 °C; for `CCCCCS(=O)(=O)NC(=O)c1ccc2nc(C)n(Cc3ccc(OCCCC)cc3Cl)c2n1` [Example 17, 3-(2-chloro-4-(1-butoxy)benzyl)-2-methyl-5-(1-pentanesulfonylcarbamoyl)-3H-imidazo[4,5-b]pyridine], 133 to 136 °C.

`CCCNS(=O)(=O)NC(=O)c1ccc2nc(C)n(Cc3ccc(-c4ccccc4)cc3Cl)c2n1` [Example 60, 3-(2-chloro-4-phenylbenzyl)-2-methyl-5-[(1-propylaminosulfonyl)carbamoyl]-3H-imidazo[4,5-b]pyridine] yielded a melting point of 208 to 209 °C. For `CCCCCN(C)c1ccc(Cn2c(C)nc3ccc(C(=O)NS(=O)(=O)CCCCC)nc32)c(Cl)c1` [Example 52, 3-(2-chloro-4-(methyl-(1-pentyl)amino)benzyl)-2-methyl-5-(1-pentanesulfonylcarbamoyl)-3H-imidazo[4,5-b]pyridine] the value was 83 to 85 °C; for `CCCCCS(=O)(=O)NC(=O)c1ccc2nc(C)n(Cc3ccc(N(C)CCCC)cc3Cl)c2n1` [Example 45, 3-(4-((1-butyl)methylamino)-2-chlorobenzyl)-2-methyl-5-(1-pentanesulfonylcarbamoyl)-3H-imidazo[4,5-b]pyridine], 129 to 130 °C.
